Measurements from patent US9670227B2, “Thienopyrimidine derivatives, a process for their preparation and pharmaceutical compositions containing them” (LES LABORATOIRES SERVIER, priority 2013, dated 2017).

target: Mcl-1 protein (UniProtKB primary accession number: Q07820) (Homo sapiens, UniProt Q07820); test: Inhibition of Mcl-1 by fluorescence polarisation, Method 1; format: binding; details: fluorescence polarisation test; Method 2 values are underlined in the patent (underlining not visible here); read-out: IC50 (M) Mcl-1 FP
Sequence (Q07820 whole entry): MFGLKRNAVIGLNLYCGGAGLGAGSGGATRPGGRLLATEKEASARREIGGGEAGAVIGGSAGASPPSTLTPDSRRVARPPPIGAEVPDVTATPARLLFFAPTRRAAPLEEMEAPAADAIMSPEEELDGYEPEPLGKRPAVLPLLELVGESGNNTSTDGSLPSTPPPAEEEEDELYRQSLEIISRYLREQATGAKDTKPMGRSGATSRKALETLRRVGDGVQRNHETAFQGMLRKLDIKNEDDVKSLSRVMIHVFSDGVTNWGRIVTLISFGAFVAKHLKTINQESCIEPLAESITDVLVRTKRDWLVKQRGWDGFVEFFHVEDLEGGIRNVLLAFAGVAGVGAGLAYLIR
How it was run: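 Compounds were tested as 11-point serial dilutions at 5% final DMSO against 5 nM Mcl-1 with 1 nM fluorescein-labelled ligand in 10 mM HEPES, 150 mM NaCl, 0.05% Tween 20, pH 7.4. Relative binding potency was read by fluorescence polarisation.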

Row | IC50 | Structure (SMILES)
1 | 2.8e-08 M | Cc1c(-c2c(-c3ccco3)sc3ncnc(O[C@H](Cc4ccccc4C(F)(F)F)C(=O)O)c23)ccc(OCCN2CCN(C)CC2)c1Cl [Example 353, (2R)-2-{[(5Sa)-5-{3-chloro-2-methyl-4-[2-(4-methylpiperazin-1-yl)ethoxy]phenyl}-6-(furan-2-yl)thieno[2,3-d]pyrimidin-4-yl]oxy}-3-[2-(trifluoromethyl)phenyl]propanoic acid]
2 | 3e-08 M | Cc1c(-c2c(-c3ccco3)sc3ncnc(OC(Cc4ccccc4CN)C(=O)O)c23)ccc(OCCN2CCN(C)CC2)c1Cl [Example 355, (2R)-3-[2-(aminomethyl)phenyl]-2-{[(5Sa)-5-{3-chloro-2-methyl-4-[2-(4-methylpiperazin-1-yl)ethoxy]phenyl}-6-(furan-2-yl)thieno[2,3-d]pyrimidin-4-yl]oxy}propanoic acid]
3 | 1.1e-08 M | CC(=O)NCc1ccccc1CC(Oc1ncnc2sc(-c3ccco3)c(-c3ccc(OCCN4CCN(C)CC4)c(Cl)c3C)c12)C(=O)O [Example 356, (2R)-3-{2-[(acetylamino)methyl]phenyl}-2-{[(5Sa)-5-{3-chloro-2-methyl-4-[2-(4-methylpiperazin-1-yl)ethoxy]phenyl}-6-(furan-2-yl)thieno[2,3-d]pyrimidin-4-yl]oxy}propanoic acid]
4 | 7.1e-07 M | Cc1c(-c2c(-c3ccco3)sc3ncnc(OC(Cc4ccccc4SCC(F)(F)F)C(=O)O)c23)ccc(OCCN2CCN(C)CC2)c1Cl [Example 361, (2S)-2-{[(5Ra)-5-{3-chloro-2-methyl-4-[2-(4-methylpiperazin-1-yl)ethoxy]phenyl}-6-(furan-2-yl)thieno[2,3-d]pyrimidin-4-yl]oxy}-3-{2-[(2,2,2-trifluoroethyl)sulfanyl]phenyl}propanoic acid]
5 | 7.7e-09 M | COc1ccccc1CC(Oc1ncnc2sc(-c3ccc(Cl)o3)c(-c3ccc(OCCN4CCN(C)CC4)c(Cl)c3C)c12)C(=O)O [Example 363, (2R)-2-{[6-(5-chlorofuran-2-yl)-(5Sa)-5-{3-chloro-2-methyl-4-[2-(4-methylpiperazin-1-yl)ethoxy]phenyl}thieno[2,3-d]pyrimidin-4-yl]oxy}-3-(2-methoxyphenyl)propanoic acid]

Row | Structure (SMILES) | IC50
6 | CCc1sc2ncnc(OC(Cc3ccccc3)C(=O)O)c2c1-c1ccc(OCC(=O)N2CCN(C)CC2)c(Cl)c1C [Example 392, (2R)-2-[((5Sa)-5-{3-chloro-2-methyl-4-[2-(4-methylpiperazin-1-yl)-2-oxoethoxy]phenyl}-6-ethylthieno[2,3-d]pyrimidin-4-yl)oxy]-3-phenylpropanoic acid] | 3e-08 M

same assay, conditions: fluorescence polarisation; Method 1, or Method 2; read-out: IC50 (M) Mcl-1 FP

Row | IC50 | Structure (SMILES)
7 | 3.4e-08 M | CCc1sc2ncnc(OC(Cc3ccccc3)C(=O)O)c2c1-c1ccc(OCc2ccccc2)c(Cl)c1C [Example 394, (2R)-2-({(5Sa)-5-[4-(benzyloxy)-3-chloro-2-methylphenyl]-6-ethylthieno[2,3-d]pyrimidin-4-yl}oxy)-3-phenylpropanoic acid]
8 | 1.4e-08 M | CCc1sc2ncnc(OC(Cc3ccccc3)C(=O)O)c2c1-c1ccc(OCCCn2ccnc2)c(Cl)c1C [Example 403, (2R)-2-[((5Sa)-5-{3-chloro-4-[3-(1H-imidazol-1-yl)propoxy]-2-methylphenyl}-6-ethylthieno[2,3-d]pyrimidin-4-yl)oxy]-3-phenylpropanoic acid]
9 | 5.3e-08 M | CCc1sc2ncnc(OC(Cc3ccccc3)C(=O)O)c2c1-c1ccc(OCCO)c(Cl)c1C [Example 423, (2R)-2-({(5Sa)-5-[3-chloro-4-(2-hydroxyethoxy)-2-methylphenyl]-6-ethylthieno[2,3-d]pyrimidin-4-yl}oxy)-3-phenylpropanoic acid]
10 | 9.6e-09 M | CCc1sc2ncnc(OC(Cc3ccccc3)C(=O)O)c2c1-c1ccc(OCCOCCOC)c(Cl)c1C [Example 425, (2R)-2-[((5Sa)-5-{3-chloro-4-[2-(2-methoxyethoxy)ethoxy]-2-methylphenyl}-6-ethylthieno[2,3-d]pyrimidin-4-yl)oxy]-3-phenylpropanoic acid]
11 | 4.6e-09 M | CCc1sc2ncnc(OC(Cc3ccccc3)C(=O)O)c2c1-c1cc([N+](=O)[O-])c(O)c(Cl)c1C [Example 426, (2R)-2-{[(5Sa)-5-(3-chloro-4-hydroxy-2-methyl-5-nitrophenyl)-6-ethylthieno[2,3-d]pyrimidin-4-yl]oxy}-3-phenylpropanoic acid]

Continued, compound first:

Row | Structure (SMILES) | IC50
12 | CCc1sc2ncnc(OC(Cc3ccccc3)C(=O)O)c2c1-c1ccc(OCc2ccncc2)c(Cl)c1C [Example 395, (2R)-2-({(5Sa)-5-[3-chloro-2-methyl-4-(pyridin-4-ylmethoxy)phenyl]-6-ethylthieno[2,3-d]pyrimidin-4-yl}oxy)-3-phenylpropanoic acid] | 1.6e-08 M
13 | CCc1sc2ncnc(OC(Cc3ccccc3)C(=O)O)c2c1-c1ccc(OCCCc2ccncc2)c(Cl)c1C [Example 399, (2R)-2-[((5Sa)-5-{3-chloro-2-methyl-4-[3-(pyridin-4-yl)propoxy]phenyl}-6-ethylthieno[2,3-d]pyrimidin-4-yl)oxy]-3-phenylpropanoic acid] | 1.4e-08 M
14 | CCc1sc2ncnc(OC(Cc3ccccc3)C(=O)O)c2c1-c1ccc(OCCCO)c(Cl)c1C [Example 405, (2R)-2-({(5Sa)-5-[3-chloro-4-(3-hydroxypropoxy)-2-methylphenyl]-6-ethylthieno[2,3-d]pyrimidin-4-yl}oxy)-3-phenylpropanoic acid] | 7.4e-09 M
15 | CCc1sc2ncnc(OC(Cc3ccccc3)C(=O)O)c2c1-c1ccc(OCCN(C)C)cc1C [Example 409, (2R)-2-[((5Sa)-5-{4-[2-(dimethylamino)ethoxy]-2-methylphenyl}-6-ethylthieno[2,3-d]pyrimidin-4-yl)oxy]-3-phenylpropanoic acid] | 2e-07 M
16 | CCc1sc2ncnc(OC(Cc3ccccc3)C(=O)O)c2c1-c1ccc(OCCN(C)C)cc1C [Example 410, (2R)-2-[((5Ra)-5-{4-[2-(dimethylamino)ethoxy]-2-methylphenyl}-6-ethylthieno[2,3-d]pyrimidin-4-yl)oxy]-3-phenylpropanoic acid] | 2.2e-06 M
17 | CCc1sc2ncnc(OC(Cc3ccccc3)C(=O)O)c2c1-c1ccc(OCCN2CCN(C)CC2)cc1C [Example 416, (2R)-2-[(6-ethyl-(5Ra)-5-{2-methyl-4-[2-(4-methylpiperazin-1-yl)ethoxy]phenyl}thieno[2,3-d]pyrimidin-4-yl)oxy]-3-phenylpropanoic acid] | 7e-07 M
18 | CCc1sc2ncnc(OC(Cc3ccccc3)C(=O)O)c2c1-c1ccc(OCCN2CCN(C)CC2)cc1C [Example 417, (2R)-2-[(6-ethyl-(5Sa)-5-{2-methyl-4-[2-(4-methylpiperazin-1-yl)ethoxy]phenyl}thieno[2,3-d]pyrimidin-4-yl)oxy]-3-phenylpropanoic acid] | 1.5e-07 M
19 | CCc1sc2ncnc(OC(Cc3ccccc3)C(=O)O)c2c1-c1ccc(OCCOC)c(Cl)c1C [Example 424, (2R)-2-({(5Sa)-5-[3-chloro-4-(2-methoxyethoxy)-2-methylphenyl]-6-ethylthieno[2,3-d]pyrimidin-4-yl}oxy)-3-phenylpropanoic acid] | 9.6e-08 M

same assay, conditions: partial inhibitors; @ 10 uM test compound

Row | percentage fluorescence polarisation inhibition, Mcl-1 FP | Structure (SMILES)
20 | 38.1% @ 10 uM | CCc1sc2ncnc(O[C@H](Cc3ccccc3)C(=O)O)c2c1-c1ccc(OCCN2CCOCC2)c(Cl)c1C [Example 421, (2R)-2-[((5Ra)-5-{3-chloro-2-methyl-4-[2-(morpholin-4-yl)ethoxy]phenyl}-6-ethylthieno[2,3-d]pyrimidin-4-yl)oxy]-3-phenylpropanoic acid]
